pIC50: −log10 of the molar value. Like-named read-outs stand apart in the source and are kept apart here.
Assays:
[1] = Liver microsomal stability in vitro, cynomolgus monkey; type: in vitro ADME; details: for half-life at 1 μM: pH 7.4, cynomolgus monkey liver microsomes 0.5 mg protein/mL, 1 μM test compound, 37° C., read-out: Cynomolgus monkey T1/2
Procedure: Evaluation of in vitro liver microsomal stability of the compound of the present disclosure was tested by the following method:
Buffer: 100 mM potassium phosphate buffer, pH 7.4; […] MgCl2.
Liver microsomes: human liver microsomes, Corning Cat No. 452117; Rat liver microsomes, Xenotech Cat No. R1000; Mouse liver microsomes, Xenotech Cat No. M1000; Dog liver microsomes, Xenotech Cat No. D1000; Liver microsomes of cynomolgus monkey, Corning Cat No. 452413, the final concentration was 0.5 mg protein/mL.
1. Intermediate solution: 5 μL of compound or control in stock solution (10 mM) was diluted with 495 μL of methanol (concentration: 100 μM, 99% MeOH).
2. Operating solution: the intermediate solution was diluted […] with 450 μL 100 mM potassium phosphate buffer (concentration: 10 μM, 9.9% MeOH).
1. 10 μL of compound or control solution per well was added to all plates (T0, T5, T10, T20, T30, T60, NCF60) except matrix blank.
2. Microsome solution was distributed to 96-well plates according to platemap for standby, 680 μL per well, and the mixture of microsome solution and the compound was incubated at 37° C. for about 10 minutes.
4. After preheating, NADPH regeneration system was distributed to 96-well plate, 90 μL per well, for standby according to plate map, which was added to each plate to start the reaction, 10 μL per well. The final concentration of each component in the incubation medium includes: 0.5 mg protein/mL microsome, 1 μM test compound, […], 0.99% methanol and 0.01% DMSO.
6. The above-prepared stop solution (4° C. cooling) was added to stop the reaction, 300 μL per well.
9. During centrifugation, eight new 96-well plates were loaded with 300 μL of HPLC water, and then 100 μL of supernatant was transferred for mixing, followed by LC/MS/MS detection.
10. Data analysis: The peak area of the corresponding compound and internal standard was detected by LC-MS/MS, and the T1/2 of the compound was calculated by the following formula: […]

[2] = molecular target: T1, PARP1 (Homo sapiens, UniProt P09874); test: PARP1 Colorimetric Assay (PARP-1 kinase inhibitory activity); type: biochemical; details: PARP1 colorimetric assay kit, 1 hour at room temperature; read-out: PARP1 (in vitro enzymatic inhibitory activity, IC50)
T1 construct: purchased BPS 80580
T1 sequence (P09874 whole entry): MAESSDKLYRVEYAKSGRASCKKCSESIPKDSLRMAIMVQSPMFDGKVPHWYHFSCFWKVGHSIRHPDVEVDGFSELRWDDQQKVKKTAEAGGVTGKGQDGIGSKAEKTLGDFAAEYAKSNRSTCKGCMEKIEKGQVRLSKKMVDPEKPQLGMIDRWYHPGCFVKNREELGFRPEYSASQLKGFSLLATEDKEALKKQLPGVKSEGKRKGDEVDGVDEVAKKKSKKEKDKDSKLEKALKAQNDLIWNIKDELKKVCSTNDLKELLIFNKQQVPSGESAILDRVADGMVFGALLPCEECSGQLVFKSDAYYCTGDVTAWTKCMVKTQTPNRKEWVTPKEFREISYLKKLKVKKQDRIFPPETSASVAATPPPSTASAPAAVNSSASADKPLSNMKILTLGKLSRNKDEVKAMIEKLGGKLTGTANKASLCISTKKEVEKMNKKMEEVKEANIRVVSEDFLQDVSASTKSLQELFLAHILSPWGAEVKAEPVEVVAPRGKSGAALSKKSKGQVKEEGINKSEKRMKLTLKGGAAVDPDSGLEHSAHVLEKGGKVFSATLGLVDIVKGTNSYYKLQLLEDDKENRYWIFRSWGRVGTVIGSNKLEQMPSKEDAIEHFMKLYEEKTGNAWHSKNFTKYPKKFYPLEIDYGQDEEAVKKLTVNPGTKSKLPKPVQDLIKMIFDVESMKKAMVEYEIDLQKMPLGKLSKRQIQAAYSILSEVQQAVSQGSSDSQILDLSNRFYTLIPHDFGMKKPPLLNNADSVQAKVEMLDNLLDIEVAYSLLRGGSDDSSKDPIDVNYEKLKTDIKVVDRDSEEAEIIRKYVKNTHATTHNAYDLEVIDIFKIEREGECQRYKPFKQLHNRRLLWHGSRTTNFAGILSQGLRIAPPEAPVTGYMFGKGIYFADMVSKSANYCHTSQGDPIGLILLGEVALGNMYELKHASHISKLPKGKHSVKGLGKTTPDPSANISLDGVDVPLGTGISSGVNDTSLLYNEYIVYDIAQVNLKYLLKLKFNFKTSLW
Procedure: PARP1 kinase activity was tested by the following method:
PARP1 Colorimetric Assay Kit (BPS, Cat #80580)
1. PARP1 Colorimetric Assay
2) 50 μL of diluted coating solution was added to each well for overnight at 4° C.
4) 200 μL of blocking buffer was added to each well and incubated at room temperature for 90 minutes.
1) A reaction solution was prepared in a ratio of […] 2.5 μL 10×PARP buffer+2.5 μL 10×PARP Assay mixture+5 μL Activated DNA+15 μL deionized water per well, and 25 μL of the reaction solution was added to each well (see Table 1).
4) 100 μL of colorimetric HRP substrate was added to each well and reacted at room temperature for 20 minutes.
5) 100 μL of 2 M H2SO4 was added to each well and OD 450 nm was read on a microplate reader.

[3] = molecular target: T2, CYP2C19 (Homo sapiens, UniProt P33261); test: Inhibition of human liver microsomal CYP450 enzymes, CYP2C19; type: in vitro ADME; details: human liver microsomes, substrate S-Mephenytoin 35 μM; Reference = omeprazole; read-out: IC50 2C19
T2 construct: from tissue; host or cells: human liver microsomes (HLM)
T2 sequence (P33261 whole entry): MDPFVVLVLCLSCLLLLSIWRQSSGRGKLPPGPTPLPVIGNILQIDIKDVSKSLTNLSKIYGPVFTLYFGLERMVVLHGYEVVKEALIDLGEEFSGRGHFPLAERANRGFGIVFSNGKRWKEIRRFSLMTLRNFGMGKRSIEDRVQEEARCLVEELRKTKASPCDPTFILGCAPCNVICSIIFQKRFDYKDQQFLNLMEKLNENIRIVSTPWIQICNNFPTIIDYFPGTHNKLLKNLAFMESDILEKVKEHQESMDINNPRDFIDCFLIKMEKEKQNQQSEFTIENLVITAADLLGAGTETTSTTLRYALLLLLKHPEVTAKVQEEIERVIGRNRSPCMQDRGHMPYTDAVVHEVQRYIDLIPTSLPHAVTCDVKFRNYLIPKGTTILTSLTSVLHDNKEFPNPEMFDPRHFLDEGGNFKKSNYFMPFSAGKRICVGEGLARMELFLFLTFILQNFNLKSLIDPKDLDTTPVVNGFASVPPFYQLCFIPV
Procedure: (§1) The inhibitory effects of the compound of the present disclosure on the CYP450 enzymes of six human subtypes were determined by the following experimental method:
(§2) Reference compounds of each subtype: CYP1A2: α-naphthoflavone; CYP2C9: sulfaphenazole; CYP2C19: omeprazole; CYP3A4: ketoconazole; CYP2D6: quinidine.
(§3) Substrate concentration: CYP1A2: Phenacetin at 30 μM; CYP2C9: Diclofenac at 10 μM; CYP2C19: S-Mephenytoin at 35 μM; CYP3A4: Midazolam at 5 μM and Testosterone at 80 μM; CYP2D6: Bufuralol at 10 μM.
(§4) 6. 0.2 mg/mL of HLM was added to the test wells, 400 μL per well, and then the gradient diluted 400× test compound was added to the corresponding wells.
(§5) 7. 0.2 mg/mL of HLM was added to the test wells, 200 μL per well, and then the gradient-diluted reference inhibitor was added to the corresponding wells. Steps 6 and 7 needed to be performed on ice.
(§6) 8.1. 30 μL of test compound and reference compound were mixed in 0.2 mg/mL of HLM solution (see steps 6 and 7).
(§7) 8.2. 15 μL of 4× substrate solution (see step 4) was added.
(§8) 10. Preheated 8 mM of NADPH solution was added to the 96-well test plate (see step 3) to initiate the reaction, 15 μL per well.
(§9) 11. The test plate was incubated at 37° C.: 3A4 for 5 minutes, each of 1A2, 2C9 and 2D6 for 10 minutes, and 2C19 for 45 minutes.
(§10) 12. ACN containing internal reference was added to stop the reaction, 120 μL per well.
14. […]

[4] = molecular target: T3, CYP1A2 (Homo sapiens, UniProt P05177); test: Inhibition of human liver microsomal CYP450 enzymes, CYP1A2; type: in vitro ADME; details: human liver microsomes, substrate Phenacetin 30 μM; Reference = α-naphthoflavone; read-out: IC50 1A2
T3 construct: from tissue; host or cells: human liver microsomes (HLM)
T3 sequence (P05177 1-516): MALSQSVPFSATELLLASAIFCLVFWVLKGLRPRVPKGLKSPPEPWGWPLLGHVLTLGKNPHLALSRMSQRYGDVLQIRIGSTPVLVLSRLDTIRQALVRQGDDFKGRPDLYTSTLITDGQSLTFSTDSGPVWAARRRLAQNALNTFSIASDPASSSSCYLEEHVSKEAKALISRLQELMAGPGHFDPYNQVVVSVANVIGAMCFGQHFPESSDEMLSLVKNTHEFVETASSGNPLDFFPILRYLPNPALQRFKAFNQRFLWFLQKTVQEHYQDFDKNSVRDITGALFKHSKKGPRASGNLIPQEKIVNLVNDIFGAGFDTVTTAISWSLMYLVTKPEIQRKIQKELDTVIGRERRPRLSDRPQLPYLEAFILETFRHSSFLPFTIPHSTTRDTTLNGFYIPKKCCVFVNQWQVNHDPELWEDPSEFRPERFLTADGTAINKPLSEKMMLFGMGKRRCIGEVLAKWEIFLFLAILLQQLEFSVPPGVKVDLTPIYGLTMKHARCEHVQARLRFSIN
Procedure: as §1, §2, §3, §4, §5, §6, §7, §8, §9, §10
14. […]

[5] = molecular target: T4, CYP3A4 (Homo sapiens, UniProt P08684); test: Inhibition of human liver microsomal CYP450 enzymes, CYP3A4; type: in vitro ADME; details: human liver microsomes, Reference = ketoconazole
T4 construct: from tissue; host or cells: human liver microsomes (HLM)
T4 sequence (P08684 whole entry): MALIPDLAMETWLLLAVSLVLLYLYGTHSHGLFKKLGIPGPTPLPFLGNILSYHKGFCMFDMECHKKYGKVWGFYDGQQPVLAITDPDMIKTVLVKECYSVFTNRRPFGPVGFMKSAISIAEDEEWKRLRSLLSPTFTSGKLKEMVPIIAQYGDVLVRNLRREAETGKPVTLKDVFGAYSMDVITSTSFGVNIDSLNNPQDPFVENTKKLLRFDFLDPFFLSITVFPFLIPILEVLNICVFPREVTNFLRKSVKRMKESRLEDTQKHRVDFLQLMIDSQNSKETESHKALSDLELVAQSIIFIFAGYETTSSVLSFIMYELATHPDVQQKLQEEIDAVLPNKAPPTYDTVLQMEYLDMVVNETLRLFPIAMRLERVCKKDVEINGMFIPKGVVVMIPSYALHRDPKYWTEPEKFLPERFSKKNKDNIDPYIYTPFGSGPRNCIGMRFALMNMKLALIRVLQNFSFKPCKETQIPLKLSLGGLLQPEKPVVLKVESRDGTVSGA
Procedure: 50 μL of supernatant from each well was transferred to a 96-well sample plate containing 50 μL of ultrapure water (Millipore, ZMQS50F01) for LC/MS analysis. […]

metabolic stability in cynomolgus monkey liver microsomes, in words ([1]; cynomolgus monkey liver microsomes) | pIC50 [2] | pIC50 ([5]; substrate Midazolam 5 μM, read-out: IC50 3A4 (Midazolam)) | pIC50 ([5]; substrate Testosterone 80 μM, read-out: IC50 3A4 (Testosterone)) | Compound | half-life at 1 μM [1] [h] | pIC50 [3] | pIC50 [4]
excellent metabolic stability | > 7.00 | < 5.00 | < 5.00 | NC(=O)c1cccc2cn(-c3ccc([C@]4(F)CCCNC4)cc3)nc12 (single isomer, unassigned) [Example 23, (R or S)-2-(4-(3-fluoropiperidin-3-yl)phenyl)-2H-indazole-7-carboxamide] | 1.03 | < 5.00 | < 5.00
 |  |  |  | NC(=O)c1cccc2cn(-c3ccc([C@@H]4CCCNC4)cc3)nc12 [Niraparib, reference compound] | 0.967 | < 5.00 | < 5.00

Reference: patent US11072596B2, “Poly(ADP-ribose) polymerase inhibitor, preparation method and use” (SELECTION BIOSCIENCE LLC, priority 2017, dated 2021)
